Assay results: patent US9198433B2, “Substituted benzene fungicides” (E I DU PONT DE NEMOURS AND COMPANY, priority 2007, dated 2015)
Marks after values point to notes of the source that are not given here.

Tests used:
Assay type in all cases: in vivo
[1] = test system: Botrytis cinerea; assay: Test F: tomato Botrytis, preventive spray on tomato seedlings, disease rating
Outline: (§1)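 Disease ratings follow a preventive run-off spray of tomato seedlings. Compounds were first dissolved in acetone (3% of volume), then suspended in 50/50 acetone/water containing 250 ppm Trem 014. Test level 200 ppm (equivalent to 500 g/ha) except where marked * for 40 ppm or ** for 50 ppm.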

[2] = test system: Erysiphe graminis f. sp. tritici; assay: Test A: wheat powdery mildew, preventive spray on wheat seedlings, disease rating
Outline: (§2)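 Applied as preventive foliar sprays to wheat seedlings, to run-off. Formulation: acetone (3% of final volume) predissolution, then acetone/water 50/50 with surfactant at 250 ppm. Rates were 200 ppm except flagged values at 40 or 50 ppm.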

[3] = test system: Septoria tritici; assay: Test D: wheat leaf blotch, preventive spray on wheat seedlings, disease rating
Outline: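 Preventive test: one day after run-off spraying (200 ppm, equal to 500 g/ha, unless marked 40 or 50 ppm; acetone/water plus 250 ppm Trem 014), seedlings received S. tritici spore inoculum. Disease scored after 48 h at 24 °C in saturated air and 19 further days at 20 °C.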

[4] = test system: Septoria nodorum; assay: Test C: wheat glume blotch, preventive spray on wheat seedlings, disease rating
Outline: as §2

[5] = test system: Puccinia recondita f. sp. tritici; assay: Test B: wheat leaf rust, preventive spray on wheat seedlings, disease rating
Outline: as §2

[6] = test system: Alternaria solani; assay: Test H: tomato early blight, preventive spray on tomato seedlings, disease rating
Outline: as §1

[7] = 200 ppm, 100 = 100% disease control, 0 = no control relative to controls

| Compound | Percentage Disease Control, Test F ([1]; 200 ppm) [%] | Percentage Disease Control, Test A ([2]; 40 ppm (*)) | Percentage Disease Control, Test D ([3]; 40 ppm (*)) | Percentage Disease Control, Test C ([4]; 40 ppm (*)) | Percentage Disease Control, Test B ([5]; 40 ppm (*)) | Percentage Disease Control, Test H ([6]; 200 ppm) [%] | Percentage Disease Control, Test A ([2]; 200 ppm) [%] | Percentage Disease Control, Test H ([6]; 40 ppm (*)) | Percentage Disease Control, Test C ([4]; 200 ppm) [%] | Percentage Disease Control, Test B ([5]; 200 ppm) [%] | other results |
| --- | --- | --- | --- | --- | --- | --- | --- | --- | --- | --- | --- |
| COC(=O)NCc1cc(-c2cc(C(F)(F)F)n(CCC(C)(C)C)n2)ccc1Cl [Cmpd 101] | 0 | 98* % | 95* % | 100* % | 99* % | 0 |  |  |  |  |  |
| COC(=O)NCc1cc(-c2ccn(-c3nc(C(C)C)ns3)n2)ccc1Cl [Cmpd 104] | 0 | 100* % | 100* % | 100* % | 100* % | 40 |  |  |  |  |  |
| COC(=O)NCc1cc(-c2ccn(-c3nc(C)ns3)n2)ccc1Cl [Cmpd 105] | 0 |  | 99* % | 100* % | 100* % |  | 51 | 90* % |  |  |  |
| COC(=O)NCc1cc(-c2ccn(-c3ccc(OC)cc3)n2)ccc1Cl [Cmpd 106] | 0 | 98* % | 100* % | 100* % | 100* % |  |  | 92* % |  |  |  |
| COC(=O)NCc1cc(-c2ccn(-c3cccc(OC)c3)n2)ccc1Cl [Cmpd 107] | 89 | 100* % | 99* % | 100* % | 100* % |  |  | 99* % |  |  |  |
| COC(=O)NCc1cc(-c2ccn(-c3ccc(C(=O)OC)cc3)n2)ccc1Cl [Cmpd 108] | 0 |  | 98* % |  |  | 28 | 0 |  | 95 | 86 |  |
| COC(=O)NCc1cc(-c2ccn(-c3ccc(C)cc3)n2)ccc1Cl [Cmpd 109] |  | 98* % | 99* % | 100* % | 100* % |  |  | 100* % |  |  | Percentage Disease Control, Test F ([1]; 40 ppm (*)): 92* % |
| COC(=O)NCc1cc(-c2ccn(-c3ccc(C(C)C)cc3)n2)ccc1Cl [Cmpd 110] |  | 100* % | 97* % | 100* % | 100* % | 85 |  |  |  |  | Percentage Disease Control, Test F ([1]; 40 ppm (*)): 96* % |
| COC(=O)NCc1cc(-c2ccn(-c3ccc(Br)cc3)n2)ccc1Cl [Cmpd 111] | 95 | 99* % | 100* % | 100* % | 100* % |  |  | 90* % |  |  |  |
| COC(=O)NCc1cc(-c2ccn(-c3cccc(Br)c3)n2)ccc1Cl [Cmpd 112] | 0 |  | 100* % | 100* % | 99* % | 93 | 88 |  |  |  |  |
| COC(=O)NCc1cc(-c2ccn(-c3cccc(C#N)c3)n2)ccc1Cl [Cmpd 113] | 24 |  |  |  |  | 0 | 92 |  | 100 | 99 | Percentage Disease Control, Test D ([3]; 200 ppm): 100% |
| COC(=O)NCc1cc(-c2ccn(-c3ccc(C#N)cc3)n2)ccc1Cl [Cmpd 114] | 0 |  |  |  |  | 0 | 93 |  | 100 | 99 | Percentage Disease Control, Test D ([3]; 200 ppm): 100% |
| COC(=O)NCc1cc(-c2ccn(-c3cccc(F)c3)n2)ccc1Cl [Cmpd 115] | 32 |  |  |  |  | 96 | 98 |  | 100 | 99 | Percentage Disease Control, Test D ([3]; 200 ppm): 100% |
| COC(=O)NCc1cc(-c2ccn(-c3ccc(F)cc3)n2)ccc1Cl [Cmpd 116] | 0 |  |  |  |  | 99 | 99 |  | 100 | 100 | Percentage Disease Control, Test D ([3]; 200 ppm): 96% |
| COC(=O)NCc1cc(-c2ccn(-c3ccc(Cl)c(Cl)c3)n2)ccc1Cl [Cmpd 117] | 94 |  |  |  |  | 95 | 98 |  | 100 | 99 | Percentage Disease Control, Test D ([3]; 200 ppm): 100% |
| COC(=O)NCc1cc(-c2ccn(-c3ccc(F)c(F)c3)n2)ccc1Cl [Cmpd 118] | 40 |  |  |  |  | 99 | 100 |  | 100 | 100 | Percentage Disease Control, Test D ([3]; 200 ppm): 100% |
| COC(=O)NCc1cc(-n2ccc(-c3cccc(C(F)(F)F)c3)n2)ccc1Cl [Cmpd 119] | 51 | 100* % | 100* % | 100* % | 100* % | 57 |  |  |  |  |  |
| COC(=O)NCc1cc(-n2cnc(-c3cccc(C(F)(F)F)c3)n2)ccc1Cl [Cmpd 120] | 0 | 98* % | 94* % |  |  | 0 |  |  | 0 | 79 |  |
| COC(=O)NCc1cc(-n2ccc(-c3cccc(Br)c3)n2)ccc1Cl [Cmpd 121] | 0 | 98* % | 99* % | 100* % | 98* % |  |  | 90* % |  |  |  |
| COC(=O)NCc1cc(-n2ccc(-c3ccc(Cl)cc3)n2)ccc1Cl [Cmpd 122] | 63 | 100* % | 100* % | 100* % | 100* % |  |  | 97* % |  |  |  |
| COC(=O)NCc1cc(-n2ccc(-c3cccc(Cl)c3)n2)ccc1Cl [Cmpd 123] | 63 | 98* % | 99* % | 100* % | 99* % | 87 |  |  |  |  |  |
| COC(=O)NCc1cc(-n2ccc(-c3ccc(Br)cc3)n2)ccc1Cl [Cmpd 124] | 0 | 100* % | 100* % | 100* % | 100* % |  |  | 99* % |  |  |  |
| COC(=O)NCc1cc(-c2cn[nH]c2)ccc1Cl [Cmpd 127] |  |  |  |  |  |  |  |  |  |  | Percentage Disease Control, Test F [1, 7]: 0%; Percentage Disease Control, Test A [2, 7]: 0%; Percentage Disease Control, Test D [3, 7]: 53%; Percentage Disease Control, Test C [4, 7]: 0%; Percentage Disease Control, Test B [5, 7]: 9%; Percentage Disease Control, Test H [6, 7]: 0% |
